# Reference: PMC2862695 (The Journal of organic chemistry, 2009)
# pKd: −log10 of the molar value.
# Columns and labels:
# [1] = test system: panel of 442 kinases; test: kinase selectivity panel of 442 kinases; assay type: binding; conditions: 10 μM, 386 nonmutant
# [2] = target: MEK1 (Homo sapiens, UniProt Q02750); test: dissociation constant against MEK1; assay type: binding; conditions: read-out: Kd MEK1
# [3] = target: EGFR (Homo sapiens, UniProt P00533); test: dissociation constant against EGFR; assay type: binding; conditions: read-out: Kd EGFR
# [4] = test system: iron-mediated neuronal damage; conditions: likely by reduced phosphorylation of hemeoxygenase by ERK; cited from earlier work
# Sequence of MEK1 (Q02750 whole entry): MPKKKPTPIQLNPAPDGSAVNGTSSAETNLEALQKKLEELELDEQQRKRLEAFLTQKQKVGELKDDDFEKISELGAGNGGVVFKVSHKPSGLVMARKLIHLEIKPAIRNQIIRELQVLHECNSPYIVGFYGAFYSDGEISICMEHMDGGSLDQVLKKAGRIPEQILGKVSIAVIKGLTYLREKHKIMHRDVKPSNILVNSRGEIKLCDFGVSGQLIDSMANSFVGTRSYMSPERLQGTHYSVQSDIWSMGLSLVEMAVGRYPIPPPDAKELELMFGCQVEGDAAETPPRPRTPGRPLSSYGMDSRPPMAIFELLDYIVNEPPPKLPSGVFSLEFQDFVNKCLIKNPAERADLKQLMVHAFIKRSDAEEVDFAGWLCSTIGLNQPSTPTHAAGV
# Sequence of EGFR (P00533 25-1210): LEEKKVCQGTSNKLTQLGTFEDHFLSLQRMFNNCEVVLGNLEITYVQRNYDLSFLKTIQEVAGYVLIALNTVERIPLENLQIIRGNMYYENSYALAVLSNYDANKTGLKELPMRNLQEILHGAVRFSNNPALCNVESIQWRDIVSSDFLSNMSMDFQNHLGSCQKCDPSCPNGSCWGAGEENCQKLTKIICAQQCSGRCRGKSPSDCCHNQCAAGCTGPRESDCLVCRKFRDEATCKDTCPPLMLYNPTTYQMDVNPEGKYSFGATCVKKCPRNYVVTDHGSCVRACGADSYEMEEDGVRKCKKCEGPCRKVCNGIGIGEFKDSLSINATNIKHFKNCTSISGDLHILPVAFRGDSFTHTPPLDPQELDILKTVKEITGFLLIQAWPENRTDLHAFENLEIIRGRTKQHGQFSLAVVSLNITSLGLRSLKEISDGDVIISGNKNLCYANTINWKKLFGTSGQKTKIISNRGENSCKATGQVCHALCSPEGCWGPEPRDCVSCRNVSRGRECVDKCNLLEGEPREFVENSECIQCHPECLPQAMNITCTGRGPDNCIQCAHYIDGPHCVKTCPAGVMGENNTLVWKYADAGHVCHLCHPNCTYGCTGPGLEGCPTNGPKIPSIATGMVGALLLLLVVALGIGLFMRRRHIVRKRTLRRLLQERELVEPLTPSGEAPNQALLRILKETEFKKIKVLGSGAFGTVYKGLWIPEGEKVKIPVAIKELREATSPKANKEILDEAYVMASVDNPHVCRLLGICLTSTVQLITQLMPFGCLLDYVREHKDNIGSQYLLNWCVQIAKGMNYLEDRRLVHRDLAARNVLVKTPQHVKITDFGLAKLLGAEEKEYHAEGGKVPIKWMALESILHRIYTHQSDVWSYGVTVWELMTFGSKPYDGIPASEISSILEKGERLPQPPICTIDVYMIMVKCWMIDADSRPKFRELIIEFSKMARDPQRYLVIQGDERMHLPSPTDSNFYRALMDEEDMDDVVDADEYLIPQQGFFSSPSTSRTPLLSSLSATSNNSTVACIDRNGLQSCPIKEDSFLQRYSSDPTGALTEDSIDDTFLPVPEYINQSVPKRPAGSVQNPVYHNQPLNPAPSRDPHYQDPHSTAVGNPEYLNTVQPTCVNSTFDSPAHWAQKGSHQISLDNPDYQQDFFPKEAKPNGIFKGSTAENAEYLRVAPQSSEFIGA
smiles,measurement,setting,value
Nc1[nH]nc2nnc(-c3c(-c4ccccc4)nn4ccccc34)cc12 [FR180204],number of nonmutant kinases with >90% inhibition of kinase activity,[1],29/386
same,number of nonmutant kinases with >99% inhibition of kinase activity,[1],12 out of 386
same,pKd,[2],5.06
same,pKd,[3],5.92
same,effect on iron-mediated neuronal damage caused by hemoglobin breakdown,[4],can reduce iron-mediated neuronal damage
